In US12161689B2, “Anti-infective formulations” (NEW MEXICO TECH UNIVERSITY RESEARCH PARK CORPORATION, priority 2018, dated 2024) one finds antibacterial activity data, which are given here for one molecule.

This assay relates to multi-drug resistant Burkholderia cepacia (ATCC 10856). In words: Spot on lawn, MHA plate: killing / diameter of clearance. In kind it is cell-based. The conditions noted are these: 10 μL spot, 24 to 48 hours at 37° C.

Where a SMILES comes first, the peptide text is derived from it. Bridges are numbered along the chain shown (N, C = ends). [ ]: non-standard residue; d: D form. The star is where a group is joined. Ileψ(thiazoline)Cys = CC[C@H](C)[C@H](N)C1=N[C@H](C(=O)*)CS1; dOrn = NCCC[C@@H](N)C(=O)O

Take `CC[C@H](C)[C@H](N)C1=N[C@H](C(=O)N[C@@H](CC(C)C)C(=O)N[C@H](CCC(=O)O)C(=O)N[C@H](C(=O)N[C@H]2CCCCNC(=O)[C@H](CC(N)=O)NC(=O)[C@@H](CC(=O)O)NC(=O)[C@H](Cc3cnc[nH]3)NC(=O)[C@@H](Cc3ccccc3)NC(=O)[C@H]([C@@H](C)CC)NC(=O)[C@@H](CCCN)NC2=O)[C@@H](C)CC)CS1` [Bacitracin] ({Ileψ(thiazoline)Cys}-L[dE]IK[dOrn]I[dF]H[dD]N; lactam 4-C): the antibacterial activity entry was “−” (B. cepacia (ATCC 10856)) and “−” (Burkholderia cepacia ATCC 10856).
